The target of assay [1] is T1, Mac-1 receptor (Homo sapiens, UniProt P05107+P11215). Nature of the assay: Inhibition of 125I-fibrinogen binding to THP-1 cells by polypeptide. Further details: Separate aliquots of the resuspended Mac-1 receptor-bearing neutrophils were stimulated with 10 μM of the chemotactic peptide; endogenous in cells; host or cells: neutrophils from blood of normal volunteers, stimulated with fMLP. How it is done:
The specificity of the P1 polypeptide for the Mac-1 receptor on THP-1 cells was confirmed in assays where the binding of purified intact fibrinogen to THP-1 cells was inhibited by P1 but not by the irrelevant polypeptide, L10. The assays were performed as described in Example 6 with the exception that THP-1 cells prepared as described in Example 8D were used instead of neutrophils. The amount of polypeptide used in the assay ranged in concentration from 7 μg/ml up to 60 μg/ml.
The amount of radiolabelled fibrinogen bound to THP-1 cells was expressed as molecules/cell ×1000 and plotted on the ordinate against increasing polypeptide concentrations as shown in FIG. 7.

Assay [2] has as its target T1, Mac-1 receptor. Nature of the assay: Inhibition of 125I-P1 binding to THP-1 cells. The arrangement: Separate aliquots of the resuspended Mac-1 receptor-bearing neutrophils were stimulated with 10 μM of the chemotactic peptide; endogenous in cells. As to conditions: one hour. How it is done:
Similar binding assays and inhibition thereof were performed using the monocytic cell line THP-1 (ATCC TIB 202, Bethesda, Md.). THP-1 cells were maintained in RPMI 1640 supplemented with 10% fetal bovine serum (HyClone, Logan, UT), 20 mM Hepes, 100 μg/ml gentamycin, 2 mM L-glutamine and 10 μM beta-mercaptoethanol. The competitive inhibitors evaluated in the assay to compete for the binding of the labeled P1 polypeptide to THP-1 cells included the following:D30 prepared as described in Example 1; the irrelevant polypeptide L10 described above; the monoclonal antibody IB4 which recognizes the beta subunit of the Mac-1 receptor (Wright et al., Proc. Natl. Acad. Sci., USA, 80:5699-5703 (1983); the monoclonal antibody M1/70 which recognizes the alpha subunit of the Mac-1 receptor (Ho et al., J. Biol. Chem., 258:2766-2769 (1983); and a monoclonal antibody against tissue factor as described by Morrisey et al., Thromb. Res., 52:247-261 (1988 ).
The assays in which D30 or polypeptides derived therefrom were performed as described above and in Example 6. The assays in which antibodies were used as competitive inhibitors were performed as described in Example 2C using 50 μg/ml of each antibody. […] The amount of binding of radiolabelled P1 polypeptide to THP-1 cells was measured after a […] maintenance period in the absence or presence of unlabelled competitors. […]

The test system of a further assay is neutrophils or monocytes. As to the kind of experiment: Cell attachment to polypeptide-coated wells. The format is cell-based, human. As for the experimental part:
To determine the Mac-1 receptor-binding site on the gamma chain of D30, the synthetic polypeptides prepared above were separately evaluated in cell attachment assays. For these assays, wells of 96-well microtiter plates (Linbro/Titertek; Flow Laboratories, VA) were coated with 60 μl of a 1 mg/ml solution of individual synthetic polypeptides prepared above. The wells containing the dissolved polypeptides were maintained for 16 hours at 4° C. The wells were then washed twice with PBS and blocked for 30 minutes with 0.1% BSA in PBS. After a final wash, 100 μl of DMEM containing 1% fetal bovine serum and 2×10^5 cells/ml of either neutrophils or monocytes prepared respectively in Example 2B and Example 8D were admixed into each well. The cells were maintained for 30 minutes at room temperature to allow the cells to attach to the polypeptide-coated wells. Non-adherant cells were removed from the wells by washing twice with PBS. […]
Adherent cells were quantitated by staining with 0.5% crystal violet. […] The optical density (O.D.) at 550 nm was determined with an ELISA reader (Biotek Instruments). Non-specific adherence was determined by plating cells on BSA-coated wells for the appropriate period of time. Specific adhesion to a given polypeptide substrate was calculated by subtracting the O.D. obtained with cells plated on BSA from that observed for cells plated on individual polypeptides. […]

Assay [3] has as its target T1, Mac-1 receptor. Nature of the assay: Binding of 125I-P1 to monocytes and competition. Further details: Separate aliquots of the resuspended Mac-1 receptor-bearing neutrophils were stimulated with 10 μM of the chemotactic peptide; endogenous in cells; host or cells: neutrophils from blood of normal volunteers, stimulated with fMLP. How it is done:
Anticoagulated blood was prepared as described in Example 2B. After resuspending the pelleted erythrocytes, mononuclear and polynuclear cells with a volume equal to the starting blood volume with chilled 0.14M PBS, 35 ml of the cell suspension were layered onto 15 ml of Ficoll-Hypaque (Pharmacia) in a 50 ml polypropylene tube and centrifuged at 400×g for 40 minutes at room temperature. The cells at the interface were carefully removed with sterile plastic pipettes and were then washed two times with excess 5 mM PBS-EDTA (ethylene diamine tetracetic acid). The washed cells were then centrifuged first at 400×g for 20 minutes at 4° C., the pellet was resuspended as above, then the suspension was centrifuged again at 120×g for 12 minutes at 4° C. The cell pellet was again resuspended to form a PMBC cell suspension. […]
Human monocytes were purified from the platelet-free PMBC cell suspension as described by Fischer et al., Academic Press, Inc., New York, pp: 43-47 (1981). […] The purity of the monocyte preparation was greater than 90% as assessed by alpha-naphthyl acetate esterase staining and the viability was greater than 95% as judged by trypan blue exclusion. […]
The specific cell-associated binding of radiolabelled P1 to monocytes was measured over 60 minutes at 10 minute intervals and was calculated as described in Example 6. […]

Another assay has as its system THP-1 cells. As to the kind of experiment: Inhibition of THP-1 cell attachment to fibrinogen-coated wells. The format is cell-based, human. As for the experimental part: Cell attachment assays were performed to determine if the Plb polypeptide (SEQ ID NO 13) which was derived from the gamma chain of D30 from residue 195 to residue 201 would inhibit the binding of THP-1 cells to fibrinogen-coated plates as effectively as the larger polypeptide, P1 (SEQ ID NO 12). The assays were performed as described in Example 8C with the following modifications: the microtiter wells were coated with 10 μg/ml of fibrinogen overnight at room temperature to form fibrinogen-coated wells; the unoccupied sites on the wells were then blocked to prevent non-specific background with 3% gelatin for 30 minutes at room temperature; 2×10^5 THP-1 cells prepared as described in Example 8D2) were separately admixed with the polypeptides P1, […] and L10, the latter of which served as a control, ranging in concentration from 0.03 mg/ml to 1 mg/ml to form THP-1 cell-polypeptide admixtures; the resultant admixtures were maintained for 30 minutes at room temperature after which time the cells were admixed to the fibrinogen-coated plates as described in Example 8C.
The results of the inhibition of cell attachment assay are shown above in Table 2. The absorbance of crystal violet stain, indicating the relative number of cells that attached to the fibrinogen-coated wells, was measured at 600 nm. The absorbance values are tabulated in columns according to the concentration of each polypeptide separately tested in the assay. […] These six amino acid residues comprise the Mac-1 receptor binding site of fibrinogen.

Assay [4] has as its target T1, Mac-1 receptor. Nature of the assay: Competition of 125I-fibrinogen binding to stimulated neutrophils. The arrangement: Separate aliquots of the resuspended Mac-1 receptor-bearing neutrophils were stimulated with 10 μM of the chemotactic peptide; endogenous in cells; host or cells: neutrophils from blood of normal volunteers, stimulated with fMLP. How it is done: Fibrinogen was purified as described in Example 1 and radiolabelled as described for D30 in Example 2A. Mac-1 receptor-bearing neutrophils were prepared as described in 2B. Separate aliquots of stimulated neutrophils at a concentration of 1.5×10^7 cells/ml were simultaneously incubated with a predetermined subsaturating dose of ^125 I-labelled fibrinogen (50 μg/ml) and increasing concentrations of various competing proteins for 20 minutes at room temperature. The reaction in the admixture was terminated by centrifugation through silicon oils as described in Example 2. The amount of labelled Mac-1 receptor:fibrinogen complex was determined by gamma detection. Non-specific binding was calculated as described in Example 2 and subtracted from the total to calculate specific binding.
Unlabelled fibrinogen and fibrinogen fragments X, D:E and D obtained as described in Example 1A and B were evaluated for their ability to compete for labelled fibrinogen binding to stimulated neutrophils.
Fibrinogen fragments E and D30 obtained as described in Example 1B were evaluated for their ability to compete for labelled fibrinogen binding to stimulated neutrophils.

Several values for one entry are separate records, joined by “and”; a condition that tells them apart may be missing. Equal values may be shown once. Entries after “also recorded” stand apart in the source; their conditions may differ.

T1 sequence (P05107 23-769, other chains not shown): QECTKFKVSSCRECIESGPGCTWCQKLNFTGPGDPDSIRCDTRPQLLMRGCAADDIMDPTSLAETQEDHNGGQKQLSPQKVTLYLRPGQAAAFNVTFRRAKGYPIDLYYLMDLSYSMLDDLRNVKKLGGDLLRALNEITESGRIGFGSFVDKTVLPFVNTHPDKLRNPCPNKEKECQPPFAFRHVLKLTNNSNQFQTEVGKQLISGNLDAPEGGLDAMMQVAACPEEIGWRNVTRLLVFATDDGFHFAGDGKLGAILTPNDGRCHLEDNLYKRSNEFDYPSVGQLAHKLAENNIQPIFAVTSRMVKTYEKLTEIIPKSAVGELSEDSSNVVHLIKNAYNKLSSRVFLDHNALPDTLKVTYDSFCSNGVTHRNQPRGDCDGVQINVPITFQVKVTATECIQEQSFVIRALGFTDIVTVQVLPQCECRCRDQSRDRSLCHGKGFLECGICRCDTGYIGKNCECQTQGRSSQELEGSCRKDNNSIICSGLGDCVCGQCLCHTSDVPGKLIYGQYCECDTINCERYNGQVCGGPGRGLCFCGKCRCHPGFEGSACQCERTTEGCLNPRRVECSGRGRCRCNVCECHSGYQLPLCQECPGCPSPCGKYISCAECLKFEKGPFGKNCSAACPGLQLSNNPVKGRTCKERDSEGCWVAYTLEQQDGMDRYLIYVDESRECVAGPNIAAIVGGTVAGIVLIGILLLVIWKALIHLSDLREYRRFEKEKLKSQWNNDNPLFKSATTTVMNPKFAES

Turning to “KYGWTVFQKRLDGSV [P1, N-terminal lysine-tyrosine-glycine added]”, the “inhibition of fibrinogen binding to THP-1 cells (in words)” value with Mac-1 receptor [1] (7 to 60 μg/ml polypeptide) is listed as “inhibited”. Besides, the “polypeptide concentration giving maximal inhibition of fibrinogen binding to THP-1 cells” value with Mac-1 receptor [1] (7 to 60 μg/ml tested) came out at 20 µg/mL. Moreover, the “total specific binding of P1 to THP-1 cells in the absence of competitors” value with Mac-1 receptor [2] was “approximately 16,000 cpm”. In addition, in the assay with neutrophils or monocytes, the “promotion of cell attachment (in words)” value is “promoting cells attachment”. The “competition of 125I-P1 binding to monocytes” value in the assay with Mac-1 receptor [3] (1 mg/ml cold polypeptide) is “competitively inhibited; also recorded: competed”. Further, the “binding of radiolabelled P1 to monocytes” value in the assay with Mac-1 receptor [3] (one hour assay, 20,000 cpm 125I-P1) is “binds to monocytes in a non-saturable curve”. In the assay with THP-1 cells (0.03 to 1 mg/ml polypeptide), the “inhibition of THP-1 cell attachment to fibrinogen (in words)” value is on record as “effective at inhibiting cell attachment at all concentrations”. Further, in the assay with THP-1 cells (0.03 to 1 mg/ml tested), the “polypeptide concentration giving maximal inhibition of THP-1 binding to fibrinogen” value was 0,125 mg/ml. In addition, the “Absorbance at 600 nm (THP-1 cells attached to fibrinogen)” value in the assay with THP-1 cells (polypeptide 0.03 mg/ml) is listed as 1.02; in the assay on THP-1 cells (polypeptide 0.125 mg/ml), 0.42; in the assay with THP-1 cells (polypeptide 0.5 mg/ml), 0.36; in the assay on THP-1 cells (polypeptide 0.60 mg/ml), 1.12; with THP-1 cells (polypeptide 1.0 mg/ml), 0.48.

Consider fibrinogen, for which the “IC50 for inhibition of 125I-fibrinogen binding to stimulated neutrophils” value at Mac-1 receptor [4] (50 μg/ml 125I-fibrinogen, 20 minutes at room temperature) fell in the range of 25 to 50 µg/mL. Also, the “competition of 125I-fibrinogen binding to stimulated neutrophils (in words)” value at Mac-1 receptor [4] (increasing concentrations of competitor) was “compete”. Moreover, at Mac-1 receptor [4] (stimulated neutrophils, 50 μg/ml 125I-fibrinogen), the “125I-fibrinogen specifically bound in the absence of competitors” value is 80,200±8,000 molecules/cell and 99,600±4,500 molecules/cell.

The record behind these values is patent publication US5473051A, “Inhibition of Mac-1 receptor binding to fibrinogen using D30 homologs” (The Scripps Research Institute, priority 1991, dated 1995).
